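Following 48 hours of exposure in 96-well plates, responses at five concentrations were used to interpolate endpoints linearly. Definition used: TGI = concentration required for complete inhibition of growth.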

Data on ten compounds can be found in PubChem BioAssay (NCI).

Among the test systems are A549 NSCLC; CAKI-1 renal; HL-60(TB) leukemia; HOP-62 NSCLC; NCI-H460 lung; NCI-H522 lung; OVCAR-4 ovarian; PC-3 prostate; SF-268 CNS; SK-MEL-28 melanoma; SK-OV-3 ovarian; SNB-75 CNS; TK-10 renal; UACC-257 melanoma.
Test in all cases: NCI anticancer screen, dose series, 48 h

As to `O=C(OCc1ccccc1)N(CCCCN(CCCNC(=O)C(F)(F)F)C(=O)OCc1ccccc1)CCCNC(=O)C(F)(F)F`, the TGI in the test with A549 NSCLC was greater than 100 µM; with CAKI-1 renal, 3.55 µM; with HL-60(TB) leukemia it was greater than 100 µM; in the test on HOP-62 NSCLC, greater than 100 µM; in the test with NCI-H460 lung it was greater than 100 µM; in the test on NCI-H522 lung it was greater than 100 µM. Besides, the TGI with OVCAR-4 ovarian, in the test on PC-3 prostate, with SF-268 CNS, in the test with SK-MEL-28 melanoma, in the test with SK-OV-3 ovarian and with SNB-75 CNS was greater than 100 µM throughout. Besides, the TGI in the test on TK-10 renal and in the test on UACC-257 melanoma was greater than 100 µM in each case.
As for `O=c1c2cccnc2n2n1Cc1ccccc1C2`, the TGI with A549 NSCLC, with CAKI-1 renal, in the test with HL-60(TB) leukemia, with HOP-62 NSCLC, with NCI-H460 lung and with NCI-H522 lung was greater than 100 µM throughout. Also, the TGI in the test on OVCAR-4 ovarian, in the test with PC-3 prostate, with SF-268 CNS, in the test with SK-MEL-28 melanoma, with SK-OV-3 ovarian and with SNB-75 CNS was greater than 100 µM throughout. The TGI with TK-10 renal and in the test with UACC-257 melanoma was greater than 100 µM in each case.
As to `NC(=O)C(=CNC(N)=S)C(N)=O`, the TGI with A549 NSCLC, in the test with CAKI-1 renal, in the test on HL-60(TB) leukemia, with HOP-62 NSCLC, with NCI-H460 lung and in the test on NCI-H522 lung was greater than 100 µM each time. Moreover, the TGI in the test with OVCAR-4 ovarian, with PC-3 prostate, with SF-268 CNS, with SK-MEL-28 melanoma, in the test with SK-OV-3 ovarian and in the test with SNB-75 CNS was greater than 100 µM in each case. The compound further gave a TGI in the test on UACC-257 melanoma greater than 100 µM.
As to `C=Cc1nc2c(Cl)ncnc2n1Cc1ccccc1`, the TGI came to 29.1 µM in the test with A549 NSCLC; 3.99 µM in the test with CAKI-1 renal; 9.17 µM with HL-60(TB) leukemia; 20.1 µM in the test on HOP-62 NSCLC; 23.6 µM in the test with NCI-H460 lung; 3.83 µM in the test on NCI-H522 lung. The TGI in the test on OVCAR-4 ovarian is 13.5 µM; with PC-3 prostate it was 14.5 µM; with SF-268 CNS it was 22.9 µM; in the test on SK-MEL-28 melanoma, 11.3 µM; with SK-OV-3 ovarian, 31 µM; in the test with SNB-75 CNS, 28.4 µM. Further, the values for the TGI in the test with TK-10 renal and in the test on UACC-257 melanoma were 7.72 µM and 8.6 µM, respectively.
Take `COc1ccc(N2CN3OC(=O)N(c4ccc(OC)cc4)[C@@]3(c3ccccc3)C2)cc1`: the TGI with A549 NSCLC is greater than 100 µM; in the test on CAKI-1 renal it was greater than 100 µM; with HL-60(TB) leukemia, 67.9 µM; with HOP-62 NSCLC it was greater than 100 µM; with NCI-H460 lung, greater than 100 µM; in the test with NCI-H522 lung, greater than 100 µM. Further, the TGI with OVCAR-4 ovarian was greater than 100 µM; in the test on PC-3 prostate it was 67.3 µM; in the test on SF-268 CNS it was greater than 100 µM; with SK-MEL-28 melanoma, greater than 100 µM; with SK-OV-3 ovarian it was greater than 100 µM; in the test with SNB-75 CNS, 95.2 µM. Further, the TGI with TK-10 renal and in the test with UACC-257 melanoma was greater than 100 µM in each case.
With `Cc1ccc(Nc2nc(=O)c3c4ccccc4n(C(=O)OC(C)(C)C)c3s2)cc1`, the TGI is greater than 100 µM in the test with A549 NSCLC; 66 µM in the test with CAKI-1 renal; 59 µM in the test on HL-60(TB) leukemia; 64.1 µM in the test on HOP-62 NSCLC; 43.1 µM with NCI-H460 lung; 59.3 µM in the test with NCI-H522 lung. Further, the TGI is greater than 100 µM in the test on OVCAR-4 ovarian; greater than 100 µM with PC-3 prostate; 59.3 µM in the test with SF-268 CNS; greater than 100 µM with SK-MEL-28 melanoma; greater than 100 µM in the test on SK-OV-3 ovarian; greater than 100 µM with SNB-75 CNS. Besides, the results for the TGI with TK-10 renal and in the test on UACC-257 melanoma were 99.9 µM and greater than 100 µM, respectively.
Take `O=C1N(C2CCCCC2)C(=O)N1C1CCCCC1`: the TGI in the test on A549 NSCLC was greater than 54.5 µM; in the test with CAKI-1 renal it was 25.2 µM; in the test on HL-60(TB) leukemia it was 0.365 µM; in the test on HOP-62 NSCLC, 31.5 µM; in the test on NCI-H460 lung it was 30.3 µM; in the test with NCI-H522 lung it was 3.66 µM. Moreover, the TGI was 31.7 µM in the test on OVCAR-4 ovarian; greater than 45.7 µM in the test with PC-3 prostate; 40.2 µM in the test on SF-268 CNS; 20.7 µM in the test on SK-MEL-28 melanoma; 59.9 µM in the test on SK-OV-3 ovarian; greater than 100 µM in the test with SNB-75 CNS. Also, the TGI in the test with TK-10 renal was 38.5 µM; in the test on UACC-257 melanoma, 19.4 µM.
As for `O=c1ccn([C@@H]2C[C@H]2CO)c(=O)[nH]1`, the TGI with A549 NSCLC, with CAKI-1 renal, in the test with HL-60(TB) leukemia, with HOP-62 NSCLC, in the test on NCI-H460 lung and with NCI-H522 lung was greater than 100 µM throughout. Moreover, the TGI in the test with OVCAR-4 ovarian, with PC-3 prostate, in the test on SF-268 CNS, in the test with SK-MEL-28 melanoma, in the test with SNB-75 CNS and with TK-10 renal was greater than 100 µM throughout. For the same compound, in the test on UACC-257 melanoma, the TGI is greater than 100 µM.
For `CC1OC(OC2C(OC(=O)[C@]34CCC(C)(C)C[C@H]3C3=CC[C@@H]5[C@@]6(C)CC[C@H](OC7OC(C(=O)O)C(O)C(O)C7O)C(C)(C)[C@@H]6CC[C@@]5(C)[C@]3(C)C[C@H]4O)OCC(O)C2O)C(O)C(O)C1OC1OCC(OC2OCC(O)C(O)C2O)C(O)C1O` (some centres not stated), the TGI came out at 15.5 µM in the test with A549 NSCLC; 21.6 µM in the test on CAKI-1 renal; 18.1 µM in the test on HL-60(TB) leukemia; 27.1 µM with HOP-62 NSCLC; 32.6 µM in the test with NCI-H460 lung; 16.5 µM in the test with NCI-H522 lung. For the same compound, the TGI is 9.31 µM with OVCAR-4 ovarian; 19.3 µM in the test with PC-3 prostate; 26.3 µM in the test with SF-268 CNS; 11.7 µM with SK-MEL-28 melanoma; 26.9 µM in the test on SK-OV-3 ovarian; 26.1 µM in the test with SNB-75 CNS. The same compound displayed a TGI in the test with UACC-257 melanoma of 23 µM.
Regarding `COc1ccc(NC(=S)Nc2cc(C)cc(C)n2)cc1`, the TGI in the test with A549 NSCLC, in the test on CAKI-1 renal, with HL-60(TB) leukemia, with HOP-62 NSCLC, in the test on NCI-H460 lung and in the test with NCI-H522 lung was greater than 100 µM throughout. In addition, the TGI with OVCAR-4 ovarian, in the test with PC-3 prostate, with SF-268 CNS, with SK-MEL-28 melanoma, in the test with SK-OV-3 ovarian and in the test on SNB-75 CNS was greater than 100 µM in each case. Further, the TGI with TK-10 renal and in the test on UACC-257 melanoma was greater than 100 µM each time.
